# Experiments:
# Cannabinoid receptor 1 [1] = molecular target: T1, Cannabinoid receptor 1 (Homo sapiens, UniProt P21554); experiment: biochemical; type: cell-based, HEK293
# Description: Displacement of [3H]CP-55940 from human CB1 receptor expressed in HEK293 cells
# Cannabinoid receptor 2 [2] = molecular target: T2, Cannabinoid receptor 2 (Homo sapiens, UniProt P34972); experiment: Displacement of [3H]CP-55940 from human CB2 receptor expressed in CHO cells; type: cell-based
# Cannabinoid receptor 2 [3] = molecular target: T2, Cannabinoid receptor 2; experiment: Binding affinity to CB2 receptor
# Cannabinoid receptor 1 [4] = molecular target: T1, Cannabinoid receptor 1
# Description: Binding affinity to CB1 receptor
# Homo sapiens = species: Homo sapiens; experiment: Selectivity for human CB1 receptor over human CB2 receptor
# T1 sequence (P21554 whole entry): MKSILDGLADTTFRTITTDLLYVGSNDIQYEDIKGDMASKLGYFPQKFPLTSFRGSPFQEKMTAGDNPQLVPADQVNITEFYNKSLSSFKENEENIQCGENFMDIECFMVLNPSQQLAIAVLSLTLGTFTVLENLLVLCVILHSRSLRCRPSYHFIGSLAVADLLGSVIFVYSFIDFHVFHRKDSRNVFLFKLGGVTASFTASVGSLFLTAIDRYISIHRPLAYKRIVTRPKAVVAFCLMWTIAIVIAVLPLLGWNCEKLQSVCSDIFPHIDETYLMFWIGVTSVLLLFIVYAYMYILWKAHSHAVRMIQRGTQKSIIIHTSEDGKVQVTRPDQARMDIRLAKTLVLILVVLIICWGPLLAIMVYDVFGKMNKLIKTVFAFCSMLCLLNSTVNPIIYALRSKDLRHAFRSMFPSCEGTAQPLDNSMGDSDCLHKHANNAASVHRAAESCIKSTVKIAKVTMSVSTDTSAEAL
# T2 sequence (P34972 whole entry): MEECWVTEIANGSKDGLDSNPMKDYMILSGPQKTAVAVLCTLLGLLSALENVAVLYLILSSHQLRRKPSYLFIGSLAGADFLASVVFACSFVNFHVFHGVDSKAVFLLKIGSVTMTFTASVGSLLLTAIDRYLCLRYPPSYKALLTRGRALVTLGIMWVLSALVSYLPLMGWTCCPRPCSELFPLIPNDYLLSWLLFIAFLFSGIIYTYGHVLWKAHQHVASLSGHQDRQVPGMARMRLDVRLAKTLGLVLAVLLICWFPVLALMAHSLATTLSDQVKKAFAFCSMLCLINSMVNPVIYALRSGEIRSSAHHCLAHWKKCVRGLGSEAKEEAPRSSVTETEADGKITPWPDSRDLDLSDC
SMILES,Ki (Cannabinoid receptor 1 [1]) [nM],Ki (Cannabinoid receptor 2 [2]) [nM],Ki (Cannabinoid receptor 2 [3]) [nM],Ki (Cannabinoid receptor 1 [4]) [nM],Ratio Ki (Homo sapiens)
O=C1[C@@H](CCC(O)c2ccc(F)cc2)[C@H](c2ccc(O)cc2)N1c1ccc(F)cc1 (stereo partly specified),301,> 1820,,,
COc1ccc(-c2oc3cc(OC)ccc3c2C(=O)c2ccc(C#N)cc2)cc1,,,> 10000,,
COc1ccc([C@@H]2[C@@H](CCCc3cccnc3)C(=O)N2c2ccccc2)cc1,244,1090,,,
COc1ccc([C@@H]2[C@@H](Cc3cc4ccccc4o3)C(=O)N2c2ccccc2)cc1,839,194,,,
CS(=O)(=O)C(=C1CN(C(c2ccc(Cl)cc2)c2ccc(Cl)cc2)C1)c1cc(F)cc(F)c1,,,,< 100,
O=C(NN1CCCCC1)c1nn(-c2ccc(Cl)cc2Cl)c(-c2ccc(-c3cccnc3)cc2)c1CO,,,2310,5.8,
O=C(NN1CCCCC1)c1nn(-c2ccc(Cl)cc2Cl)c2c1CCCc1cc(Cl)ccc1-2,,,21,,
CC(=O)SC(CCc1ccccc1)[C@H]1C(=O)N(c2ccc(F)cc2)[C@@H]1c1ccc(O)cc1 (stereo partly specified),52.8,282,,,5
COc1ccc(C2C(CCS(=O)(=O)c3ccccc3)C(=O)N2c2ccccc2)cc1 (stereo unspecified),451,1240,,,

# From ChEMBL document CHEMBL1144779, “Identification of novel cannabinoid CB1 receptor antagonists by using virtual screening with a pharmacophore model” (J Med Chem, 2008)
